Reference: ChEMBL document CHEMBL4184336, “Structure-Guided Modification of Heterocyclic Antagonists of the P2Y14 Receptor” (J Med Chem, 2018)

Key:
Cytochrome P450 3A4 = Cytochrome P450 3A4 (Homo sapiens, UniProt P08684); assay: Inhibition of CYP3A4 (unknown origin); type: ADME
[1] = Metabolic stability in human plasma assessed as parent compound remaining after 120 mins; type: ADME, cell-free; details: read-out: Stability
Cytochrome P450 1A2 = Cytochrome P450 1A2 (Homo sapiens, UniProt P05177); assay: Inhibition of CYP1A2 (unknown origin); type: ADME
Cytochrome P450 2C9 = Cytochrome P450 2C9 (Homo sapiens, UniProt P11712); assay: Inhibition of CYP2C9 (unknown origin); type: ADME
HepG2 = assay: Cytotoxicity against human HepG2 cells; type: cell-based
Cytochrome P450 2D6 = Cytochrome P450 2D6 (Homo sapiens, UniProt P10635); assay: Inhibition of CYP2D6 (unknown origin); type: ADME
Sequence of Cytochrome P450 2D6 (P10635 whole entry): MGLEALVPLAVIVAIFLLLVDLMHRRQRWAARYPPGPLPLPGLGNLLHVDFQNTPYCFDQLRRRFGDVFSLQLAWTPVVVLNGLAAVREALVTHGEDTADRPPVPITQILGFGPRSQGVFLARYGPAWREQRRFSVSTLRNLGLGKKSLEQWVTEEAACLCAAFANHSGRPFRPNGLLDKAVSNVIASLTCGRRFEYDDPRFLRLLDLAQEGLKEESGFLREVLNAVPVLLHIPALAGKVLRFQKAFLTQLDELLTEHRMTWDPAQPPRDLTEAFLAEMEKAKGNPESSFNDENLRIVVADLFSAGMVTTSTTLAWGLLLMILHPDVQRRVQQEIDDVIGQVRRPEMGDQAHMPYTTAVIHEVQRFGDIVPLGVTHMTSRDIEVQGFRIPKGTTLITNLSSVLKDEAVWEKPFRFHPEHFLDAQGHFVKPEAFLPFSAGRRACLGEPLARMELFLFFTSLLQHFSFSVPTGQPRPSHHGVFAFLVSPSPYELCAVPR

[2] = Metabolic stability in mouse plasma assessed as parent compound remaining after 120 mins; type: ADME, cell-free; details: read-out: Stability
[3] = target: Voltage-gated inwardly rectifying potassium channel KCNH2 (Homo sapiens, UniProt Q12809); assay: Inhibition of human ERG
Cytochrome P450 2C19 = Cytochrome P450 2C19 (Homo sapiens, UniProt P33261); assay: Inhibition of CYP2C19 (unknown origin); type: ADME
Sequence of Cytochrome P450 2C19 (P33261 whole entry): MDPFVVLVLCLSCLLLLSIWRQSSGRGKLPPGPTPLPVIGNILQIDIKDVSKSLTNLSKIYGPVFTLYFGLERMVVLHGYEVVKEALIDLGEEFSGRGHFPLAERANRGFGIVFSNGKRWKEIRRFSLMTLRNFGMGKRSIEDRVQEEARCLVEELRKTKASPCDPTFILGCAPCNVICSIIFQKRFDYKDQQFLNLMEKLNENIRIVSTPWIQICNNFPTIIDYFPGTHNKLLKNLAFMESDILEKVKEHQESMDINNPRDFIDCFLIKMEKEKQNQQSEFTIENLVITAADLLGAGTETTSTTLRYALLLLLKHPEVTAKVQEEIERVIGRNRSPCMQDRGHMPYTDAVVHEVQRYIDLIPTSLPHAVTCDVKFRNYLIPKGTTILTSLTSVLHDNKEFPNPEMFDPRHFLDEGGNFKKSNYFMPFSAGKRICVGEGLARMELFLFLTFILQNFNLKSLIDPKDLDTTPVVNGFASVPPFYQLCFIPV

P2Y purinoceptor 14 = target: T1, P2Y purinoceptor 14 (Homo sapiens, UniProt Q15391)
T1 sequence (Q15391 whole entry): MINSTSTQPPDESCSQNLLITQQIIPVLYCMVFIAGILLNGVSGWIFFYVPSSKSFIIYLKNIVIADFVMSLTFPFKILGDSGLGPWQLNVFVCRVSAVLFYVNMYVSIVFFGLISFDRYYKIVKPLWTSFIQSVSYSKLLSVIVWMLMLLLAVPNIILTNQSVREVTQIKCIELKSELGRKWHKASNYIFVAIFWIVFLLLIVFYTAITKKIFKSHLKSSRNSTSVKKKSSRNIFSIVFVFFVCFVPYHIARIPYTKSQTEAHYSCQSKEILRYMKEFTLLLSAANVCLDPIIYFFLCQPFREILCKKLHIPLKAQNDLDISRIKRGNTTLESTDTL
Description: Displacement of MRS4174 from human P2Y14R expressed in CHO cells preincubated for 30 mins followed by MRS4174 addition measured after 30 mins by flow cytometric method

[4] = target: Delta-type opioid receptor (Homo sapiens, UniProt P41143); assay: Displacement of [3H]-DADLE from human delta opioid receptor expressed in HEK293 cells after 90 mins by scintillation counting method; type: cell-based
Sequence of Delta-type opioid receptor (P41143 whole entry): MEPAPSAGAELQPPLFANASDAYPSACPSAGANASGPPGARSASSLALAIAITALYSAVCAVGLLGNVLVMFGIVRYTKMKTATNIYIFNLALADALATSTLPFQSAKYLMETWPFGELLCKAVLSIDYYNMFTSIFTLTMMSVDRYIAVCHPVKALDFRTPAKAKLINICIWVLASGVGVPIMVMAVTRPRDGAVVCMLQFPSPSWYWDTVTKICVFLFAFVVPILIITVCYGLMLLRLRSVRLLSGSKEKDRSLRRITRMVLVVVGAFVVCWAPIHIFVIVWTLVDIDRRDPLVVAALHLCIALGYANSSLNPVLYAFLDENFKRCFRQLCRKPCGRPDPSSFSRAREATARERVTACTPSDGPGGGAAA

[5] = Half life in Sprague-Dawley rat plasma at 0.5 mg/kg, iv; type: ADME, organism-based
[6] = Aqueous solubility of the compound; type: physicochemical; details: buffer
[7] = Metabolic stability in rat plasma assessed as parent compound remaining after 120 mins; type: ADME, cell-free; details: read-out: Stability
[8] = target: Alpha-2B adrenergic receptor (Homo sapiens, UniProt P18089); assay: Displacement of [3H]Rauwolscine from human adrenergic alpha2B receptor expressed in HEK293T cell membranes after 90 mins by scintillation counting method
Histamine H2 receptor = Histamine H2 receptor (Homo sapiens, UniProt P25021); assay: Displacement of [125I]-Iodoaminopotentidine from human histamine H2 receptor expressed in HEK293T cell membranes after 90 mins by scintillation counting method
Sequence of Histamine H2 receptor (P25021 whole entry): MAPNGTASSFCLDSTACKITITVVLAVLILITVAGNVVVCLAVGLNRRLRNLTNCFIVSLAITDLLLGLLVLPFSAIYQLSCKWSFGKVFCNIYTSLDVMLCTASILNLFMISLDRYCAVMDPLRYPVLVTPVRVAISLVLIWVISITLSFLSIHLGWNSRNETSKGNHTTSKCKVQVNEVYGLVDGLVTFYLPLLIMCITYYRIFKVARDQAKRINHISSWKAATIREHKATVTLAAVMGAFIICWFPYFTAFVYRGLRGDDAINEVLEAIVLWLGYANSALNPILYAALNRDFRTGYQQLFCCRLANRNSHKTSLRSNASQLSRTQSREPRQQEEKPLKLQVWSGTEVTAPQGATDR

[9] = target: 5-hydroxytryptamine receptor 2A (Homo sapiens, UniProt P28223); assay: Displacement of [3H]-Ketanserin from human 5-HT2A receptor expressed in HEK293T cell membranes after 90 mins by scintillation counting method
D(1A) dopamine receptor = D(1A) dopamine receptor (Homo sapiens, UniProt P21728); assay: Displacement of [3H]SCH23390 from human dopamine D1 receptor expressed in HEK293T cell membranes after 90 mins by scintillation counting method
D(2) dopamine receptor = D(2) dopamine receptor (Homo sapiens, UniProt P14416); assay: Displacement of [3H]N-methylspiperone from human dopamine D2 receptor expressed in HEK293T cell membranes after 90 mins by scintillation counting method
[10] = target: Alpha-2A adrenergic receptor (Homo sapiens, UniProt P08913); assay: Displacement of [3H]Rauwolscine from human adrenergic alpha2A receptor expressed in MDCK cell membranes after 90 mins by scintillation counting method
Sequence of Alpha-2A adrenergic receptor (P08913 whole entry): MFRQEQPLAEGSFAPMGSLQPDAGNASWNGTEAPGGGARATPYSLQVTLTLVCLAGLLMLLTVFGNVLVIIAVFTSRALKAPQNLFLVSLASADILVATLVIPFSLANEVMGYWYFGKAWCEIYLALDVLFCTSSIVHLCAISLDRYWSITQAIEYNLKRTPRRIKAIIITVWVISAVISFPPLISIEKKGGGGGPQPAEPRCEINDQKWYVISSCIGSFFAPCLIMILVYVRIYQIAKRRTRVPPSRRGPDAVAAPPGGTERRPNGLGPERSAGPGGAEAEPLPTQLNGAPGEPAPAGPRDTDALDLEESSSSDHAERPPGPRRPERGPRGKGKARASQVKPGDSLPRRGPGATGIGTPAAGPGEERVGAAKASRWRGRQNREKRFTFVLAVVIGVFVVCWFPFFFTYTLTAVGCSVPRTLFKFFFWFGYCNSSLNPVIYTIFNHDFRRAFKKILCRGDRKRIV

[11] = target: Sodium-dependent dopamine transporter (Homo sapiens, UniProt Q01959); assay: Displacement of [3H]-WIN35428 from human DAT after 90 mins by scintillation counting method
[12] = target: Alpha-1B adrenergic receptor (Homo sapiens, UniProt P35368); assay: Displacement of [3H]-Prazosin from human adrenergic alpha1B receptor after 90 mins by scintillation counting method
Sequence of Alpha-1B adrenergic receptor (P35368 whole entry): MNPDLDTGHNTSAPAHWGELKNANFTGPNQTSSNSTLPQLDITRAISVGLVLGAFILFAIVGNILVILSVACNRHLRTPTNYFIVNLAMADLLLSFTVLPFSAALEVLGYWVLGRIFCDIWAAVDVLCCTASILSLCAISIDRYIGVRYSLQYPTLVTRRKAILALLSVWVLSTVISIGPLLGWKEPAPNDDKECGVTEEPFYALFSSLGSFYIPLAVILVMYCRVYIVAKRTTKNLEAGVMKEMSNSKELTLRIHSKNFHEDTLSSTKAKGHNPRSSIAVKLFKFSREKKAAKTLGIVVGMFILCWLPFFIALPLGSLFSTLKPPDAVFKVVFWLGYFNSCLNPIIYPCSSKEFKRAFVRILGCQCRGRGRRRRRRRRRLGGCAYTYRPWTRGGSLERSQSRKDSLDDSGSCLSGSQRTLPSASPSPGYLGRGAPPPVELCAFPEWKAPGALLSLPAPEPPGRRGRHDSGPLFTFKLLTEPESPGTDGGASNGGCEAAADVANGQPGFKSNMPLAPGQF

D(3) dopamine receptor = D(3) dopamine receptor (Homo sapiens, UniProt P35462); assay: Displacement of [3H]N-methylspiperone from human dopamine D3 receptor expressed in HEK293T cell membranes after 90 mins by scintillation counting method
[13] = target: Alpha-1A adrenergic receptor (Homo sapiens, UniProt P35348); assay: Displacement of [3H]-Prazosin from human adrenergic alpha1A receptor after 90 mins by scintillation counting method
[14] = target: Sodium-dependent noradrenaline transporter (Homo sapiens, UniProt P23975); assay: Displacement of [3H]-Nisoxetine from human NET expressed in HEK293 cell membranes after 90 mins by scintillation counting method
D(1B) dopamine receptor = D(1B) dopamine receptor (Homo sapiens, UniProt P21918); assay: Displacement of [3H]SCH23390 from human dopamine D5 receptor expressed in HEK293T cell membranes after 90 mins by scintillation counting method
[15] = target: 5-hydroxytryptamine receptor 1A (Homo sapiens, UniProt P08908); assay: Displacement of [3H]-Way100635 from human 5-HT1A receptor expressed in CHO cell membranes after 90 mins by scintillation counting method
Sequence of 5-hydroxytryptamine receptor 1A (P08908 whole entry): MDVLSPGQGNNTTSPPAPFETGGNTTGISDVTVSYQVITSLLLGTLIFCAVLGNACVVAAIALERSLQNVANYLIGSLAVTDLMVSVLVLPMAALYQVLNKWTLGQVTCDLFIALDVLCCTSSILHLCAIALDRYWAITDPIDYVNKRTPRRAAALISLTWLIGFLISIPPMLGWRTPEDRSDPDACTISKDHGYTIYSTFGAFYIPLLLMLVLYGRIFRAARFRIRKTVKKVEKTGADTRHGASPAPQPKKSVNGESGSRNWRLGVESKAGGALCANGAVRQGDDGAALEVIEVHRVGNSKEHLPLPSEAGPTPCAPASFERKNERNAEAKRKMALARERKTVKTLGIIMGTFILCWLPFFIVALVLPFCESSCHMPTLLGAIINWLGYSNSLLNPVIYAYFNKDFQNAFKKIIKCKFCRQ

[16] = target: Sigma intracellular receptor 2 (Homo sapiens, UniProt Q5BJF2); assay: Displacement of [3H]-DTG from human sigma2 receptor expressed in HEK293T cell membranes after 90 mins by scintillation counting method
[17] = target: Alpha-1D adrenergic receptor (Homo sapiens, UniProt P25100); assay: Displacement of [3H]-Prazosin from human adrenergic alpha1D receptor after 90 mins by scintillation counting method
Sequence of Alpha-1D adrenergic receptor (P25100 whole entry): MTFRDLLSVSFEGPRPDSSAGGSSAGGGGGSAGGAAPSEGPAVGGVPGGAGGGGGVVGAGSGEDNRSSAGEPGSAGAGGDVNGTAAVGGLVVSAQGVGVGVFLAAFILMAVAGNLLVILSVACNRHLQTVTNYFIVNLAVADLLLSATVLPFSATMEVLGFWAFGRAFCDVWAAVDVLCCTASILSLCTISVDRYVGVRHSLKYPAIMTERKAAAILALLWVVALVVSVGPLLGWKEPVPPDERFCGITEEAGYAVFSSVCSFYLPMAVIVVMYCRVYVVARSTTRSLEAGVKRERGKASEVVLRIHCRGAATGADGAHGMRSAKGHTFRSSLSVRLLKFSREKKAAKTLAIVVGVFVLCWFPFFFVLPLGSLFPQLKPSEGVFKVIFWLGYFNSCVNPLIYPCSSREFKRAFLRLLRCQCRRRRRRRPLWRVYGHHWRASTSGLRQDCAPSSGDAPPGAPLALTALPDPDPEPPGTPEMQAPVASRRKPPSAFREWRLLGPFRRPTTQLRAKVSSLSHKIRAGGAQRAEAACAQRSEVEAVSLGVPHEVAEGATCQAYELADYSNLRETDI

[18] = target: Sodium-dependent serotonin transporter (Homo sapiens, UniProt P31645); assay: Displacement of [3H]-Citalopram from human SERT expressed in HEK293 cell membranes after 90 mins by scintillation counting method
[19] = target: 5-hydroxytryptamine receptor 6 (Homo sapiens, UniProt P50406); assay: Displacement of [3H]-LSD from human 5-HT6 receptor expressed in HEK293 cell membranes after 90 mins by scintillation counting method
[20] = target: Beta-3 adrenergic receptor (Homo sapiens, UniProt P13945); assay: Displacement of [3H]-CGP12177 from human adrenergic beta-3 receptor expressed in HEK Flp-In cell membranes after 90 mins by scintillation counting method
Sequence of Beta-3 adrenergic receptor (P13945 whole entry): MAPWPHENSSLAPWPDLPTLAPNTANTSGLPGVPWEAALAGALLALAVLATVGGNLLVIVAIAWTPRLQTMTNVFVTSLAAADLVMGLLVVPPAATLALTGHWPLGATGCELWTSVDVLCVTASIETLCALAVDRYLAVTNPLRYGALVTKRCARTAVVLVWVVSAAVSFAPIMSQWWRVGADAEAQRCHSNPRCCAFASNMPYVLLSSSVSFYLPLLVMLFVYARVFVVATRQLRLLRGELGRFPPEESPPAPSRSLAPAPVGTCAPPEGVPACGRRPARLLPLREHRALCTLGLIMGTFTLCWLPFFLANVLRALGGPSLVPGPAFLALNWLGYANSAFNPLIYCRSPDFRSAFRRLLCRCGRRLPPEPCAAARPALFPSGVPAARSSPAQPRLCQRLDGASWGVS

[21] = target: Kappa-type opioid receptor (Homo sapiens, UniProt P41145); assay: Displacement of [3H]-U69593 from human KOR expressed in HEK293 cell membranes after 90 mins by scintillation counting method
Translocator protein = Translocator protein (Rattus norvegicus, UniProt P16257); assay: Displacement of [3H]-PK11195 from rat brain TSPO after 90 mins by scintillation counting method
Sequence of Translocator protein (P16257 whole entry, looked up): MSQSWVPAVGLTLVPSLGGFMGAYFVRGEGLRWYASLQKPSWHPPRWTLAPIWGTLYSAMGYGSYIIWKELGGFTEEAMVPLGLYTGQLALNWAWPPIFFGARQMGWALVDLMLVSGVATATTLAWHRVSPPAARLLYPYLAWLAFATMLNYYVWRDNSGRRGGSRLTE

Sequence of Cytochrome P450 3A4 (P08684 whole entry): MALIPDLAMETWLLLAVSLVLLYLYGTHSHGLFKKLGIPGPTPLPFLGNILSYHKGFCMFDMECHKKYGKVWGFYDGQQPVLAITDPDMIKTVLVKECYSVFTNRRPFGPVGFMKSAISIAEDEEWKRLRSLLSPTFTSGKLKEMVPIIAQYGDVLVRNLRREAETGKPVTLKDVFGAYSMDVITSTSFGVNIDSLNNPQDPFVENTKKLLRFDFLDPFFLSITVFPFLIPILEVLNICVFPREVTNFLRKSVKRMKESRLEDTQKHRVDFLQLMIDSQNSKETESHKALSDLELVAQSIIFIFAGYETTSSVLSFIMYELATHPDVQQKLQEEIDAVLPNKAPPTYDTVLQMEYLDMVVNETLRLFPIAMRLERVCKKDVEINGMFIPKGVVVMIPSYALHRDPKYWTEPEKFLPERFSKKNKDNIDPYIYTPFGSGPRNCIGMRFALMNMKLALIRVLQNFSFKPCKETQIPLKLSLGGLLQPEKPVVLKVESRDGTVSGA

CCN(CC)CC.NC(=O)c1ccc(-c2cc(C(=O)O)cc(-n3cc(-c4ccc(C(F)(F)F)cc4)nn3)c2)cc1
IC50 (Cytochrome P450 3A4): ≥ 30 µM | remaining at 2 h [1]: 94 to 100% | IC50 (Cytochrome P450 1A2): ≥ 30 µM | IC50 (Cytochrome P450 2C9): ≥ 30 µM | CC50 (HepG2): > 30 µM | IC50 (Cytochrome P450 2D6): ≥ 30 µM | remaining at 2 h [2]: 94 to 100% | IC50 [3]: 0.166 µM | IC50 (Cytochrome P450 2C19): ≥ 30 µM | IC50 (P2Y purinoceptor 14): 0.269 µM | Ki [4]: 1.47 µM | half-life [5]: 12 min | solubility [6]: 0.138 mg/mL | remaining at 2 h [7]: 94 to 100%

NC(=O)c1ccc(-c2cc(C(=O)O)cc(-n3cc(-c4ccc(C(F)(F)F)cc4)nn3)c2)nc1
IC50 (P2Y purinoceptor 14): 0.516 µM

CC(C)(C)OC(=O)NCCCNC(=O)c1ccc(-c2cc(C(=O)O)cc(-n3cc(-c4ccc(C(F)(F)F)cc4)nn3)c2)s1
IC50 (P2Y purinoceptor 14): 2.28 µM

NCCCNS(=O)(=O)c1ccc(-c2cc(C(=O)O)cc(-n3cc(-c4ccc(C(F)(F)F)cc4)nn3)c2)s1
IC50 (P2Y purinoceptor 14): 0.756 µM

C#CCCCCN1CCC(c2ccc(-c3cc(C(=O)O)cc4cc(-c5ccc(C(F)(F)F)cc5)ccc34)cc2)CC1
IC50 (P2Y purinoceptor 14): 0.763 µM

CCNC(=O)c1ccc(-c2cc(C(=O)O)cc(-n3cc(-c4ccc(C(F)(F)F)cc4)nn3)c2)cc1
IC50 (P2Y purinoceptor 14): 0.899 µM

NCCCNC(=O)c1ccc(-c2cc(-c3nnn[nH]3)cc(-n3cc(-c4ccc(C(F)(F)F)cc4)nn3)c2)s1
IC50 (P2Y purinoceptor 14): 1.19 µM

NC(=O)c1cnc(-c2cc(C(=O)O)cc(-n3cc(-c4ccc(C(F)(F)F)cc4)nn3)c2)cn1
IC50 (P2Y purinoceptor 14): 0.566 µM

NS(=O)(=O)c1ccc(-c2cc(C(=O)O)cc(-n3cc(-c4ccc(C(F)(F)F)cc4)nn3)c2)s1
IC50 (P2Y purinoceptor 14): 6.44 µM

O=C(O)c1cc(-c2ccc(S(=O)(=O)NCCCCO)s2)cc(-n2cc(-c3ccc(C(F)(F)F)cc3)nn2)c1
IC50 (P2Y purinoceptor 14): 8.42 µM

FC(F)(F)c1ccc(-c2cn(-c3cc(Br)cc(-c4nnn[nH]4)c3)nn2)cc1
IC50 (P2Y purinoceptor 14): 33.1 µM

O=C(O)c1cc(-c2ccc(C(=O)N3CCNCC3)s2)cc(-n2cc(-c3ccc(C(F)(F)F)cc3)nn2)c1
IC50 (P2Y purinoceptor 14): 12.6 µM

CC(C)(C)OC(=O)NCCCNS(=O)(=O)c1ccc(-c2cc(C(=O)O)cc(-n3cc(-c4ccc(C(F)(F)F)cc4)nn3)c2)s1
IC50 (P2Y purinoceptor 14): 9.33 µM

NS(=O)(=O)c1ccc(-c2cc(C(=O)O)cc(-n3cc(-c4ccc(C(F)(F)F)cc4)nn3)c2)cc1
IC50 (P2Y purinoceptor 14): 0.608 µM | Ki [4]: 3.26 µM

CCCNC(=O)c1ccc(-c2cc(C(=O)O)cc(-n3cc(-c4ccc(C(F)(F)F)cc4)nn3)c2)cc1
IC50 (P2Y purinoceptor 14): 1.49 µM

NCCCCCCn1cc(CCCCN2CCC(c3ccc(-c4cc(C(=O)O)cc5cc(-c6ccc(C(F)(F)F)cc6)ccc45)cc3)CC2)nn1
Ki [8]: 0.984 µM | Ki (Histamine H2 receptor): 0.365 µM | Ki [9]: 8.4 µM | Ki (D(1A) dopamine receptor): 7.6 µM | Ki (D(2) dopamine receptor): 8.21 µM | Ki [10]: 0.028 µM | Ki [11]: 1.07 µM | Ki [12]: 1.11 µM | Ki (D(3) dopamine receptor): 1.6 µM | Ki [13]: 1.77 µM | Ki [14]: 1.87 µM | Ki (D(1B) dopamine receptor): 1.07 µM | Ki [15]: 5.65 µM | IC50 (P2Y purinoceptor 14): 0.0254 µM | Ki [16]: 1.2 µM | Ki [17]: 1.27 µM

CC(C)(C)OC(=O)NCCCCCCn1cc(CCCCN2CCC(c3ccc(-c4cc(C(=O)O)cc5cc(-c6ccc(C(F)(F)F)cc6)ccc45)cc3)CC2)nn1
Ki (Histamine H2 receptor): 0.829 µM | Ki [10]: 5.28 µM | Ki [18]: 2.08 µM | Ki [19]: 7.9 µM | Ki [20]: 2.36 µM | IC50 (P2Y purinoceptor 14): 0.133 µM | Ki [21]: 4.06 µM | Ki (Translocator protein): 5.6 µM

O=C(O)c1cc(Br)cc(-n2cc(-c3ccc(C(F)(F)F)cc3)nn2)c1
IC50 (P2Y purinoceptor 14): 26.8 µM

O=C(O)c1cc(-c2ccc(S(=O)(=O)N3CCNCC3)cc2)cc(-n2cc(-c3ccc(C(F)(F)F)cc3)nn2)c1
IC50 (P2Y purinoceptor 14): 1.64 µM

O=C(O)c1cc(-c2ccc(S(=O)(=O)N3CCNCC3)s2)cc(-n2cc(-c3ccc(C(F)(F)F)cc3)nn2)c1
IC50 (P2Y purinoceptor 14): 1.51 µM

CC(=O)NCCCCCCn1cc(CCCCN2CCC(c3ccc(-c4cc(C(=O)O)cc5cc(-c6ccc(C(F)(F)F)cc6)ccc45)cc3)CC2)nn1
IC50 (P2Y purinoceptor 14): 0.0835 µM
